Experimental data as given in US20200140489A1 (priority 2013, published 2020).
Read-outs that look alike come from different tables or passages of the source. Positions of bridges follow the written chain, without caps; N, C: chain ends. Non-standard residues stand in square brackets, D forms with d. Residues, ends and D or L forms follow the SMILES beside them. *: point of attachment. X1 = CC[C@@H](C)C1NC(=O)CN(CC(=O)*)C1=O; NMeI = CC[C@H](C)[C@H](NC)C(=O)O; NMeD = CN[C@@H](CC(=O)O)C(=O)O; NMeL = CN[C@@H](CC(C)C)C(=O)O; Nleu = CC(C)CNCC(=O)O; Aoc = NCCCCCCCC(=O)O; GABA = NCCCC(=O)O

Key:
AgrC-I [1] = biological target: T1, AgrC-I (Staphylococcus aureus, UniProt O07911); format: cell-based, S. aureus; conditions: for IC50: read-out: AgrC-I IC50, fluorescence reporter strain; for AgrC-I % Activation: fluorescence of treated vs non-treated wild-type bacteria, lower % activation = more potent inhibition
T1 sequence (O07911 1-430): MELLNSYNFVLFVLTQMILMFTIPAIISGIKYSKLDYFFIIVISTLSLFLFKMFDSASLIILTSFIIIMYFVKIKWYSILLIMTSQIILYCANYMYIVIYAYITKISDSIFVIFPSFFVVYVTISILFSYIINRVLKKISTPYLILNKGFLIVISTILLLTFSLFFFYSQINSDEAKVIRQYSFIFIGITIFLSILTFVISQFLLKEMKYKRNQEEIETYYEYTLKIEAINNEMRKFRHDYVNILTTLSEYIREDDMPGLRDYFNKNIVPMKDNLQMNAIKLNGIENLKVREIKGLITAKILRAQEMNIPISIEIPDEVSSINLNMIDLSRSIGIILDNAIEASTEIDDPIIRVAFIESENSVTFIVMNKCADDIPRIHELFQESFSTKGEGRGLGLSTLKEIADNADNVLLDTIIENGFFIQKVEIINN

AgrC-II [2] = biological target: T2, AgrC-II (Staphylococcus aureus, UniProt O33587); format: cell-based, S. aureus; conditions: for IC50: read-out: AgrC-II IC50, fluorescence reporter strain; for AgrC-II % Activation: fluorescence of treated vs non-treated wild-type bacteria, lower % activation = more potent inhibition
T2 sequence (O33587 1-437): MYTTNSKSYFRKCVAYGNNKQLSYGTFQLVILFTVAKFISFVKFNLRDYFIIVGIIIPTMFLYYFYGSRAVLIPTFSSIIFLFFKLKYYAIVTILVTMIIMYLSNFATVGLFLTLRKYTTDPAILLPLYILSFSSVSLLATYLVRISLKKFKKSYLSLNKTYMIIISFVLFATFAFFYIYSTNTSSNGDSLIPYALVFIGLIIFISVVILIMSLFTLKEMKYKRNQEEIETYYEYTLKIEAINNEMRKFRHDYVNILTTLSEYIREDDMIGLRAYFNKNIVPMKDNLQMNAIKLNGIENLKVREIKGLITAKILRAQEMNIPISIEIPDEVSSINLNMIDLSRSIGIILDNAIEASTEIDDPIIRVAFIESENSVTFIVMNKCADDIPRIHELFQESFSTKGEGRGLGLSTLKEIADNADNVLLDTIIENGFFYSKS

AgrC-III = AgrC-III (Staphylococcus aureus, UniProt O33590); format: cell-based, S. aureus; conditions: for AgrC-III activity: gfp/fluorescence assay; for IC50: read-out: AgrC-III IC50, fluorescence reporter strain; for AgrC-III % Activation: fluorescence of treated vs non-treated wild-type bacteria, lower % activation = more potent inhibition
AgrC-III, sequence (O33590 1-425): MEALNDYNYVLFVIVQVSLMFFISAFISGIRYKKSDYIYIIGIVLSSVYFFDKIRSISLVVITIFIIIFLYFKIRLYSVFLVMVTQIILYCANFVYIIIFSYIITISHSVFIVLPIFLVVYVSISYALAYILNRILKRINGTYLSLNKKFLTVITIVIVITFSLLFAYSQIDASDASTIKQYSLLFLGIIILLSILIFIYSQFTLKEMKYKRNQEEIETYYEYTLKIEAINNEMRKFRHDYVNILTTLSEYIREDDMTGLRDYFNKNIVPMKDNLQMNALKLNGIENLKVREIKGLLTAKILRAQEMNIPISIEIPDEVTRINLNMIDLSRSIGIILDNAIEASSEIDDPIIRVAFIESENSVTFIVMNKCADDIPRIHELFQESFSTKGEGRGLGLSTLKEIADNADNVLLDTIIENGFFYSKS

AgrC-IV [3] = biological target: T3, AgrC-IV (Staphylococcus aureus, UniProt Q309Z2); format: cell-based, S. aureus; conditions: for AgrC-IV activity: gfp/fluorescence assay; for IC50: read-out: AgrC-IV IC50; for AgrC-IV % Activation: fluorescence of treated vs non-treated wild-type bacteria, lower % activation = more potent inhibition
T3 sequence (Q309Z2 1-430): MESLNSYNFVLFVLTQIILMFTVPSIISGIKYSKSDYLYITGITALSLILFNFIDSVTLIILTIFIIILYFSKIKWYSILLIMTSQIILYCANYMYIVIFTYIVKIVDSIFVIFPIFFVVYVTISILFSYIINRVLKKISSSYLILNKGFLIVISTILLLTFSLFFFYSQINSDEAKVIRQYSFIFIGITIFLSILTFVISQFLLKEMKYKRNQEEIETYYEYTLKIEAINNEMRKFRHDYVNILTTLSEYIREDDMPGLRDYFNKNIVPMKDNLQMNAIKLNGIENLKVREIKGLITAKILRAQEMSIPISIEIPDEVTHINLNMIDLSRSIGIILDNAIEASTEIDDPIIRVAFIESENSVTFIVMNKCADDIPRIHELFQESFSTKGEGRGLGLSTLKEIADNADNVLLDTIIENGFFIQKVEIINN

AgrC-II [4] = biological target: T2, AgrC-II; assay: Hemolysis assay, wild-type group-II strain RN6923, rabbit red blood cells; conditions: read-out: AgrC-II IC50; hemolysis assay; 200 fM − 10 μM
AgrC-I [5] = biological target: T1, AgrC-I; assay: Hemolysis assay, wild-type group-I strain RN6390B, rabbit red blood cells; conditions: read-out: AgrC-I IC50; hemolysis assay; 200 fM − 10 μM
AgrC-IV [6] = biological target: T3, AgrC-IV; assay: Hemolysis assay, wild-type group-IV strain RN4850, rabbit red blood cells; conditions: read-out: AgrC-IV IC50; hemolysis assay; 200 fM − 10 μM
[7] = second-generation analogues, 200 fM − 10 μM
[8] = second-generation analogues, fluorescence reporter strain, 200 fM − 10 μM
[9] = AIPs tested over 200 fM − 10 μM or (b1) 2.5 pM − 10 μM, triplicate
[10] = fluorescence reporter strain, AIPs tested over 200 fM − 10 μM or (b1) 2.5 pM − 10 μM, triplicate

Compound | IC50 (AgrC-I [1]; [7]) [nM] | IC50 (AgrC-II [2]; [7]) [nM] | AgrC-III activity (AgrC-III) | IC50 (AgrC-III; [7]) [nM] | IC50 (AgrC-IV [3]; [8]) [nM] | IC50 (AgrC-I [1]; [9]) [nM] | IC50 (AgrC-II [2]; [9]) [nM] | IC50 (AgrC-III; [9]) [nM] | IC50 (AgrC-IV [3]; [10]) [nM] | further results
CC[C@H](C)[C@H](NC(=O)[C@H](C)N)C(=O)N[C@@H](CC(N)=O)C(=O)N[C@H]1CSC(=O)[C@H](CC(C)C)NC(=O)[C@H](CC(C)C)NC(=O)[C@H](Cc2ccccc2)NC(=O)[C@H](CC(=O)O)NC1=O [A-AIP-III, A-I-N-(C-D-F-L-L)] (H-AINCDFLL; thioester 4-C) | 26.1 | 6.4 | partial agonist | 27.5 | 28.5 | – | – | – | – | AgrC-IV activity (AgrC-IV [3]): partial agonism
CC[C@H](C)[C@H](N)C(=O)N[C@@H](CC(N)=O)C(=O)N[C@H]1CSC(=O)[C@H](CC(C)C)NC(=O)[C@H](CC(C)C)NC(=O)[C@H](C)NC(=O)[C@H](CC(=O)O)NC1=O [AIP-III F5A, I-N-(C-D-A-L-L)] (H-INCDALL; thioester 3-C) | – | – | – | – | – | > 200 | > 200 | > 200 | 118 | IC50 (AgrC-II [4]): 44.7 nM
CC(C)C[C@@H]1NC(=O)[C@H](Cc2ccccc2)NC(=O)[C@H](CC(=O)O)NC(=O)[C@@H](NC(=O)[C@H](CC(N)=O)NC(=O)[C@H](C)N)CSC(=O)[C@H](CC(C)C)NC1=O [AIP-III I1A, A-N-(C-D-F-L-L)] (H-ANCDFLL; thioester 3-C) | – | – | – | – | – | 17.9 | 4.26 | 194 | 7.85 | IC50 (AgrC-I [5]): 4.61 nM; IC50 (AgrC-II [4]): 1.29 nM; IC50 (AgrC-IV [6]): 12.5 nM
CC(C)C[C@@H]1NC(=O)[C@H](Cc2ccccc2)NC(=O)[C@H](CC(=O)O)NC(=O)[C@@H](NC(=O)[C@H](C)NC(=O)[C@H](C)N)CSC(=O)[C@H](CC(C)C)NC1=O [AIP-III I1A/N2A, A-A-(C-D-F-L-L)] (H-AACDFLL; thioester 3-C) | 7.4 | 4.38 | – | 2.6 | 5.41 | – | – | – | – | –
CC[C@H](C)[C@H](N)C(=O)N[C@@H](CC(N)=O)C(=O)N[C@H]1CSC(=O)[C@H](CC(C)C)NC(=O)[C@H](C)NC(=O)[C@H](Cc2ccccc2)NC(=O)[C@H](CC(=O)O)NC1=O [AIP-III L6A, I-N-(C-D-F-A-L)] (H-INCDFAL; thioester 3-C) | – | – | – | – | – | > 200 | > 200 | > 200 | > 200 | –
CC[C@H](C)[C@H](N)C(=O)N[C@@H](CC(N)=O)C(=O)N[C@H]1CSC(=O)[C@H](C)NC(=O)[C@H](CC(C)C)NC(=O)[C@H](Cc2ccccc2)NC(=O)[C@H](CC(=O)O)NC1=O [AIP-III L7A, I-N-(C-D-F-L-A)] (H-INCDFLA; thioester 3-C) | – | – | largely inactive | – | – | > 200 | > 200 | > 200 | > 200 | –
CC[C@H](C)[C@H](N)C(=O)N[C@@H](C)C(=O)N[C@H]1CSC(=O)[C@H](CC(C)C)NC(=O)[C@H](CC(C)C)NC(=O)[C@H](Cc2ccccc2)NC(=O)[C@H](CC(=O)O)NC1=O [AIP-III N2A, I-A-(C-D-F-L-L)] (H-IACDFLL; thioester 3-C) | – | – | weak agonist | – | – | 3.6 | 0.732 | – | 3.53 | IC50 (AgrC-I [5]): 1.02 nM; IC50 (AgrC-II [4]): 0.137 nM; IC50 (AgrC-IV [6]): 2.64 nM
CC[C@H](C)[C@H](N)C(=O)N[C@@H](CC(N)=O)C(=O)N[C@H]1CSC(=O)[C@H](CC(C)C)NC(=O)[C@H](CC(C)C)NC(=O)[C@H](Cc2ccccc2)NC(=O)[C@H](CC(=O)O)N(C)C1=O [AIP-III N-Me-D4, I-N-(C-NMeD-F-L-L)] (H-INC[NMeD]FLL; thioester 3-C) | – | – | – | – | – | 172 | 7.98 | 90.2 | 36.9 | –
CC[C@H](C)[C@H](NC)C(=O)N[C@@H](CC(N)=O)C(=O)N[C@H]1CSC(=O)[C@H](CC(C)C)NC(=O)[C@H](CC(C)C)NC(=O)[C@H](Cc2ccccc2)NC(=O)[C@H](CC(=O)O)NC1=O [AIP-III N-Me-I1, NMeI-N-(C-D-F-L-L)] (H-[NMeI]NCDFLL; thioester 3-C) | – | – | – | – | – | 60.8 | 12.8 | > 1000 | 49.2 | –
CC[C@H](C)[C@H](N)C(=O)N[C@@H](CC(N)=O)C(=O)N[C@H]1CSC(=O)[C@H](CC(C)C)NC(=O)[C@H](CC(C)C)N(C)C(=O)[C@H](Cc2ccccc2)NC(=O)[C@H](CC(=O)O)NC1=O [AIP-III N-Me-L6, I-N-(C-D-F-NMeL-L)] (H-INCDF[NMeL]L; thioester 3-C) | – | – | – | – | – | > 1000 | – | 162 | 81.6 | AgrC-IV activity (AgrC-IV [3]): AgrC-IV selective inhibitor
CC[C@H](C)[C@H](N)C(=O)N[C@@H](CC(N)=O)C(=O)N[C@H]1CSC(=O)[C@H](CC(C)C)N(C)C(=O)[C@H](CC(C)C)NC(=O)[C@H](Cc2ccccc2)NC(=O)[C@H](CC(=O)O)NC1=O [AIP-III N-Me-L7, I-N-(C-D-F-L-NMeL)] (H-INCDFL[NMeL]; thioester 3-C) | – | – | – | – | – | – | – | > 1000 | – | AgrC-IV IC50 (AgrC-IV [3]; [10]): _h
CC[C@H](C)[C@H](N)C(=O)N[C@@H](CC(N)=O)C(=O)N[C@H]1CSC(=O)[C@H](CC(C)C)NC(=O)[C@H](CC(C)C)NC(=O)[C@H](Cc2ccccc2)NC(=O)CN(CC(=O)O)C1=O [AIP-III nD4, I-N-(C-nD-F-L-L)] | – | – | – | – | – | 162 | 28.3 | – | 53.2 | –
CC[C@H](C)[C@H](N)C(=O)N[C@@H](CC(N)=O)C(=O)N[C@H]1CSC(=O)[C@H](CC(C)C)NC(=O)CN(CC(C)C)C(=O)[C@H](Cc2ccccc2)NC(=O)[C@H](CC(=O)O)NC1=O [AIP-III nL6, I-N-(C-D-F-nL-L)] (H-INCDF[Nleu]L; thioester 3-C) | – | – | – | – | – | – | – | > 1000 | > 1000 | –
CC[C@@H](C)C1NC(=O)CN(CC(=O)N[C@H]2CSC(=O)[C@H](CC(C)C)NC(=O)[C@H](CC(C)C)NC(=O)[C@H](Cc3ccccc3)NC(=O)[C@H](CC(=O)O)NC2=O)C1=O (stereo partly drawn) [AIP-III nN2 DKP, (I-nN)-(C-D-F-L-L)] (X1-CDFLL; thioester 1-C) | – | – | AgrC-III inhibitor | – | – | 126 | 4.28 | 25.1 | 84.8 | –
CC[C@H](C)[C@H](NC(C)=O)C(=O)N[C@@H](CC(N)=O)C(=O)N[C@H]1CSC(=O)[C@H](CC(C)C)NC(=O)[C@H](CC(C)C)NC(=O)[C@H](Cc2ccccc2)NC(=O)[C@H](CC(=O)O)NC1=O [Ac-AIP-III, Ac-I-N-(C-D-F-L-L)] (Ac-INCDFLL; thioester 3-C) | > 200 | 44.3 | largely inactive | > 200 | > 200 | – | – | – | – | –
CC[C@H](C)[C@H](NC(=O)CN)C(=O)N[C@@H](CC(N)=O)C(=O)N[C@H]1CSC(=O)[C@H](CC(C)C)NC(=O)[C@H](CC(C)C)NC(=O)[C@H](Cc2ccccc2)NC(=O)[C@H](CC(=O)O)NC1=O [G-AIP-III, G-I-N-(C-D-F-L-L)] (H-GINCDFLL; thioester 4-C) | 29.9 | 13.7 | largely inactive | > 200 | 104 | – | – | – | – | –
CC[C@H](C)[C@H](NC(=O)[C@@H](N)Cc1ccc(O)cc1)C(=O)N[C@@H](CC(N)=O)C(=O)N[C@H]1CSC(=O)[C@H](CC(C)C)NC(=O)[C@H](CC(C)C)NC(=O)[C@H](Cc2ccccc2)NC(=O)[C@H](CC(=O)O)NC1=O [Y-AIP-III, Y-I-N-(C-D-F-L-L)] (H-YINCDFLL; thioester 4-C) | 8.92 | 3.75 | moderate antagonist | 39.2 | 78.2 | – | – | – | – | –
CC(=O)N[C@H]1CSC(=O)[C@H](Cc2ccccc2)NC(=O)[C@H](CC(C)C)NC(=O)CCCNC1=O [n3LF] (Ac-C[GABA]LF; thioester 1-C) | – | – | global inhibitor of all four AgrC receptors | – | – | – | – | – | – | AgrC-I % Activation (AgrC-I [1]): 17 ± 7%; AgrC-I activity described in text (AgrC-I [1]; gfp/fluorescence assay): global inhibitor of all four AgrC receptors; AgrC-II % Activation (AgrC-II [2]): 28 ± 10%; AgrC-II activity described in text (AgrC-II [2]; gfp/fluorescence assay): global inhibitor of all four AgrC receptors; AgrC-III % Activation (AgrC-III): 13 ± 7%; AgrC-IV % Activation (AgrC-IV [3]): 6 ± 3%; AgrC-IV activity (AgrC-IV [3]): global inhibitor of all four AgrC receptors
CC(=O)N[C@H]1CSC(=O)[C@H](Cc2ccccc2)NC(=O)[C@H](CC(C)C)NC(=O)CCCCCCCNC1=O [n7LF] (Ac-C[Aoc]LF; thioester 1-C) | – | – | selective group-III inhibitors | – | – | – | – | – | – | AgrC-I % Activation (AgrC-I [1]): 54 ± 34%; AgrC-II % Activation (AgrC-II [2]): 43 ± 25%; AgrC-III % Activation (AgrC-III): 7 ± 3%; AgrC-IV % Activation (AgrC-IV [3]): 98 ± 14%
CC(=O)N[C@H]1CSC(=O)[C@H](CC(C)C)NC(=O)[C@H](CC(C)C)NC(=O)[C@H](Cc2ccccc2)NC(=O)[C@H](CC(=O)O)NC1=O [tAIP-III, Ac-(C-D-F-L-L)] (Ac-CDFLL; thioester 1-C) | 26.7 | 1.53 | largely inactive | > 200 | 25.5 | – | – | – | – | –
